This passage reports T/C results from PubChem BioAssay AID330 (DTP/NCI, 2004).

The test deals with P388 leukemia ip, CD2F1 mice, survival T/C. The experiment in a line: NCI In Vivo Anticancer Drug Screen. Data for tumor model P388 Leukemia (intraperitoneal) in CD2F1 (CDF1) mice. Conditions: endpoint: median survival time, higher = longer survival. An outline of the steps:
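Mice carrying the transplanted tumor received test compound or vehicle. Survival was recorded in each group, and the value is the treated-group measurement divided by that of the vehicle-treated control group.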

Setting [1] is: dose: 50.0 mg/kg/injection, schedule: Q01DX009 (ip), vehicle: saline with Tween-80.
Setting [2] is: dose: 100.0 mg/kg/injection, schedule: Q01DX009 (ip), vehicle: saline with Tween-80.
Where [3] appears, read: dose: 200.0 mg/kg/injection, schedule: Q01DX009 (ip), vehicle: saline with Tween-80.
Where [4] appears, read: dose: 50.0 mg/kg/injection, schedule: Q01DX005 (ip), vehicle: saline with Tween-80.
Where [5] appears, read: dose: 100.0 mg/kg/injection, schedule: Q01DX005 (ip), vehicle: saline with Tween-80.
The mark [6] stands for this setting: dose: 200.0 mg/kg/injection, schedule: Q01DX005 (ip), vehicle: saline with Tween-80.

“And” between values parts separate entries of the source, which are not always exact repeats. Equal entries are not always repeated. Toxic doses and inconclusive results are not listed.

For `CC1CN1c1cc(O)c(N2CC2C)cc1O` (stereo not drawn), the T/C reads like this: (dose: 0.29 mg/kg/injection, schedule: Q01DX009 (ip), vehicle: saline with Tween-80) 100 % of control; (dose: 0.44 mg/kg/injection, schedule: Q01DX009 (ip), vehicle: saline with Tween-80) 118 % of control; (dose: 0.63 mg/kg/injection, schedule: Q04DX003 (ip), vehicle: saline with Tween-80) 109 % of control; (dose: 0.66 mg/kg/injection, schedule: Q01DX009 (ip), vehicle: saline with Tween-80) 122 % of control; (dose: 2.5 mg/kg/injection, schedule: Q04DX003 (ip), vehicle: saline with Tween-80) 150 % of control; (dose: 4.4 mg/kg/injection, schedule: Q04DX003 (ip), vehicle: saline with Tween-80) 228 % of control. The T/C by setting is: (dose: 5.0 mg/kg/injection, schedule: Q04DX003 (ip), vehicle: saline with Tween-80) 159 % of control; (dose: 6.6 mg/kg/injection, schedule: Q04DX003 (ip), vehicle: saline with Tween-80) 238 % of control.
Consider `COC(=O)/C=C1/Nc2cnc(Nc3ccccc3)nc2N(c2ccccc2)C1=O`, for which the T/C reads like this: (dose: 40.0 mg/kg/injection, schedule: Q01DX009 (ip), vehicle: saline) 87 % of control; (dose: 80.0 mg/kg/injection, schedule: Q01DX009 (ip), vehicle: saline) 89 % of control; (dose: 160.0 mg/kg/injection, schedule: Q01DX009 (ip), vehicle: saline) 87 % of control.
In the case of `COc1cccc2c1C(=O)c1c(O)c3c(c(O)c1C2=O)C[C@@](O)(C(=O)CN1CCN(C)CC1)C[C@@H]3OC1CC(N)C(O)C(C)O1` (stereo partly drawn), the T/C runs as follows: (dose: 1.3 mg/kg/injection, schedule: Q01DX001 (ip), vehicle: water) 108 % of control; (dose: 1.56 mg/kg/injection, schedule: Q01DX009 (ip), vehicle: water) 115 % of control; (dose: 1.8 mg/kg/injection, schedule: Q01DX001 (ip), vehicle: water) 116 % of control; (dose: 2.4 mg/kg/injection, schedule: Q01DX001 (ip), vehicle: water) 106 % of control; (dose: 3.12 mg/kg/injection, schedule: Q01DX009 (ip), vehicle: water) 123 % of control; (dose: 3.13 mg/kg/injection, schedule: Q01DX009 (ip), vehicle: water) 115 % of control. Further, the T/C runs as follows: (dose: 3.2 mg/kg/injection, schedule: Q01DX001 (ip), vehicle: water) 109 % of control; (dose: 4.2 mg/kg/injection, schedule: Q01DX001 (ip), vehicle: water) 113 % of control; (dose: 5.6 mg/kg/injection, schedule: Q01DX001 (ip), vehicle: water) 115 % of control; (dose: 6.25 mg/kg/injection, schedule: Q01DX009 (ip), vehicle: water) 115 % of control; (dose: 7.5 mg/kg/injection, schedule: Q01DX001 (ip), vehicle: water) 117 % of control; (dose: 10.0 mg/kg/injection, schedule: Q01DX001 (ip), vehicle: water) 115 % of control. The T/C reads like this: (dose: 12.5 mg/kg/injection, schedule: Q01DX001 (ip), vehicle: water) 117 % of control; (dose: 18.8 mg/kg/injection, schedule: Q01DX009 (ip), vehicle: water) 161 % of control; (dose: 25.0 mg/kg/injection, schedule: Q01DX001 (ip), vehicle: water) 119 % of control; (dose: 25.0 mg/kg/injection, schedule: Q01DX009 (ip), vehicle: water) 115 % of control and 117 % of control.
In the case of `CCOC(=O)C(Cc1ccc([N+](=O)[O-])cc1)N1C(=O)c2ccccc2C1=O` (stereo not drawn), the T/C by setting is: (dose: 50.0 mg/kg/injection, schedule: Q01DX009 (ip), vehicle: distilled water + Tween-80 + alcohol) 98 % of control; (dose: 100.0 mg/kg/injection, schedule: Q01DX009 (ip), vehicle: distilled water + Tween-80 + alcohol) 89 % of control; (dose: 200.0 mg/kg/injection, schedule: Q01DX009 (ip), vehicle: distilled water + Tween-80 + alcohol) 92 % of control.
Turning to `CCCOc1cc2c(cc1C(C)c1ccc(OC)c(C)c1)OCO2` (stereo not drawn), the T/C (dose: 60.0 mg/kg/injection, schedule: Q01DX005 (ip), vehicle: saline + Tween-80 + alcohol) is 97 % of control; the T/C (dose: 120.0 mg/kg/injection, schedule: Q01DX005 (ip), vehicle: saline + Tween-80 + alcohol) is 109 % of control; the T/C (dose: 240.0 mg/kg/injection, schedule: Q01DX005 (ip), vehicle: saline + Tween-80 + alcohol) is 108 % of control.
For the molecule `CC/C(=N\NC(=S)SC)c1ccccc1`, the T/C by setting is: under setting [1], 91 % of control; under setting [2], 100 % of control; under setting [3], 97 % of control.
On the same counts, the results for `Cc1[nH][nH]c(=O)c1[N+](=O)[O-]` are 99 % of control, 108 % of control and 114 % of control.
For the molecule `C/C=C/N=NNc1ccc(OC)cc1`, the T/C is 105 % of control (dose: 100.0 mg/kg/injection, schedule: Q04DX003 (ip), vehicle: saline + Tween-80 + alcohol) and 99 % of control (dose: 200.0 mg/kg/injection, schedule: Q04DX003 (ip), vehicle: saline + Tween-80 + alcohol).
Consider `O=C(CCl)c1ccc2ccc3c(c2c1)Nc1ccccc1S3`, for which the T/C was 96 % of control (dose: 50.0 mg/kg/injection, schedule: Q01DX009 (ip), vehicle: Klucel (hydroxypropylcellulose) (HPC)); 99 % of control (dose: 100.0 mg/kg/injection, schedule: Q01DX009 (ip), vehicle: Klucel (hydroxypropylcellulose) (HPC)); 93 % of control (dose: 200.0 mg/kg/injection, schedule: Q01DX009 (ip), vehicle: Klucel (hydroxypropylcellulose) (HPC)).
With `Cc1[nH]c(=O)[nH]c(=O)c1CCSSCCc1c(C)[nH]c(=O)[nH]c1=O`, the T/C is, setting by setting: under setting [4], 102 % of control; under setting [5], 100 % of control; under setting [6], 98 % of control.
In the case of `CCN(CC)C(=O)C(F)C(F)(F)C(F)(F)COCc1ccccc1` (stereo not drawn), the T/C reads like this: under setting [1], 99 % of control; under setting [2], 100 % of control; under setting [3], 100 % of control.
As for `CN(C)CCCNc1cc(/C=C/c2cccc3ccccc23)nc2ccccc12`, the T/C (dose: 12.5 mg/kg/injection, schedule: Q01DX009 (ip), vehicle: saline) is 91 % of control; the T/C (dose: 25.0 mg/kg/injection, schedule: Q01DX009 (ip), vehicle: saline) was 92 % of control; the T/C (dose: 50.0 mg/kg/injection, schedule: Q01DX009 (ip), vehicle: saline) is 92 % of control.
As for `CC1=NN(C(=O)CC(=O)Nc2ccc(C(=O)O)cc2)C(=O)C1N=Nc1ccc(S(N)(=O)=O)cc1` (stereo not drawn), the T/C is 96 % of control under setting [4], 94 % of control under setting [5] and 93 % of control under setting [6].
For `CCCN1C[C@H](CSC)C[C@@H]2c3cccc4[nH]cc(c34)C[C@H]21`, the T/C reads like this: (dose: 6.25 mg/kg/injection, schedule: Q01DX009 (ip), vehicle: Klucel (hydroxypropylcellulose) (HPC)) 103 % of control; (dose: 12.5 mg/kg/injection, schedule: Q01DX009 (ip), vehicle: Klucel (hydroxypropylcellulose) (HPC)) 101 % of control; (dose: 25.0 mg/kg/injection, schedule: Q01DX009 (ip), vehicle: Klucel (hydroxypropylcellulose) (HPC)) 99 % of control.
Turning to `COc1ccc(S(=O)(=O)N(C)/N=C/C(=O)O)cc1`, the T/C runs as follows: (dose: 12.5 mg/kg/injection, schedule: Q01DX005 (ip), vehicle: distilled water + Tween-80) 100 % of control; (dose: 25.0 mg/kg/injection, schedule: Q01DX005 (ip), vehicle: distilled water + Tween-80) 106 % of control; (dose: 50.0 mg/kg/injection, schedule: Q01DX005 (ip), vehicle: distilled water + Tween-80) 106 % of control; (dose: 100.0 mg/kg/injection, schedule: Q01DX005 (ip), vehicle: distilled water + Tween-80) 95 % of control; (dose: 200.0 mg/kg/injection, schedule: Q01DX005 (ip), vehicle: distilled water + Tween-80) 97 % of control; (dose: 200.0 mg/kg/injection, schedule: Q01DX005 (ip), vehicle: water) 106 % of control. Further, the T/C (dose: 400.0 mg/kg/injection, schedule: Q01DX005 (ip), vehicle: water) was 102 % of control.
In the case of `CC(C)(C)c1ccnc(N=C2N=C(Nc3cc(C(C)(C)C)ccn3)c3ccccc32)c1`, the T/C is 89 % of control under setting [1] and 89 % of control under setting [2].
For the molecule `O=C1NC(=O)C(O)(C2=C(O)CCCC2=O)C(=O)N1`, the T/C was 99 % of control under setting [4], 103 % of control under setting [5] and 94 % of control under setting [6].
On to `CCN(CC)CCOCCOC1CC2CCC1(C)C2(C)C` (stereo not drawn), for which the T/C is 99 % of control (dose: 50.0 mg/kg/injection, schedule: Q01DX005 (ip), vehicle: saline) and 96 % of control (dose: 100.0 mg/kg/injection, schedule: Q01DX005 (ip), vehicle: saline).
